We go through ten compounds from patent US20250100963A1, “SULFONATED AND PHOSPHORYLATED AROMATIC MOLECULES” (Xavier University of Louisiana, priority 2023, published 2025).

Where two headings read alike, the source gives them in different places.

As a reminder, the IC50 is the concentration that gives 50% inhibition. For orientation: Ki means a measure of affinity in units of concentration, obtained from inhibition or displacement.

The target of test [1] is T1, CatG (Homo sapiens, UniProt P08311).
T1 sequence (P08311 21-244): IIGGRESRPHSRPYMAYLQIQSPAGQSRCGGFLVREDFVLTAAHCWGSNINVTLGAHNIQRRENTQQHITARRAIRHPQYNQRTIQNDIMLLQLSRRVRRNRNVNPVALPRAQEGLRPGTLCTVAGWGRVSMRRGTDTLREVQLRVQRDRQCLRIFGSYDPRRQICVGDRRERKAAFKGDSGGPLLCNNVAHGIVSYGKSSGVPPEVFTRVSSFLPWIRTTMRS
Kind of test: Direct inhibition of human CatG, chromogenic substrate hydrolysis assay. It is filed as biochemical. The protocol:
The method further comprises inhibition of proteases. […] To each well of a 96-well microplate containing 88 μl of 20 mM tris buffer containing 100 mM NaCl, 2.5 mM CaCl2, 0.1% PEG 8000 and 0.05% tween 80 was added 3 μl of CatG (final concentration of 30 nM), and 5 μl of H2O or potential inhibitor (final concentration of 0-100 μM). Following a 5-min incubation, 3 μl of CatG substrate was added (final concentration 750 μM) and the residual CatG activity was obtained from the initial rate of increase of absorbance at 405 nm. The relative residual activity of CatG at each of the inhibitor concentrations was obtained from the ratio of CatG activity in the presence and absence of the inhibitor. Logistic Equation (1) was used to plot the dose-dependence curve to obtain the IC50 (potency) and efficacy of CatG inhibition. Here, Y is the ratio of residual CatG activity in the presence of inhibitor to that in its absence, YO and YM are the minimum and maximum values of fractional residual CatG activity, respectively, IC50 is the concentration of the inhibitor that results in 50% inhibition of CatG activity and HS is the Hill slope.
To each well of a 96-well microplate containing 88 μl of 20 mM tris buffer containing 100 mM NaCl, 2.5 mM CaCl2, 0.1% PEG 8000 and 0.05% tween 80 was added 3 μl of CatG (final concentration of 30 nM), and 5 μl of H2O or potential inhibitor (final concentration of 0-100 μM). Following a 5-min incubation, 3 μl of CatG substrate was added (final concentration 750 μM) and the residual CatG activity was obtained from the initial rate of increase of absorbance at 405 nm. The relative residual activity of CatG at each of the inhibitor concentrations was obtained from the ratio of CatG activity in the presence and absence of the inhibitor. Logistic Equation (1) was used to plot the dose-dependence curve to obtain the IC50 (potency) and efficacy of CatG inhibition. Here, Y is the ratio of residual CatG activity in the presence of inhibitor to that in its absence, YO and YM are the minimum and maximum values of fractional residual CatG activity, respectively, IC50 is the concentration of the inhibitor that results in 50% inhibition of CatG activity and HS is the Hill slope.

A further test concerns the target T2, FXa (Homo sapiens, UniProt P00742).
T2 construct: factor Xa (FXa), FXIa, factor XIIa (FXIIa), trypsin and chymotrypsin
Kind of test: Direct inhibition of FXa, chromogenic substrate hydrolysis assay. It is filed as biochemical. To be noted: Tris-HCl buffer. The protocol:
(§1) Direct inhibitions of thrombin (FIIa), factor VIIa (FVIIa), factor IXa (FIXa), factor Xa (FXa), FXIa, factor XIIa (FXIIa), trypsin and chymotrypsin were evaluated using the corresponding chromogenic substrate hydrolysis assays as previously reported. Briefly, to each well of a 96-well microplate containing 85-185 μl of […] Tris buffer containing 100 mM NaCl, 2.5 mM CaCl2, 0.1% PEG 8000, and 0.05% tween 80 at 25 (thrombin) or 37° C. (FVIIa, FIXa, FXa, FXIa, FXIIa, chymotrypsin, and trypsin) were added 5 μl of enzyme (thrombin, FVIIa, FIXa, FXa, FXIa, FXIIa, chymotrypsin, and trypsin) and 5 μl of the inhibitor. Following an incubation period of 5 min, the appropriate chromogenic substrates (Spectrozyme TH, Spectrozyme FIXa, Spectrozyme FXa, S-2366, Spectrozyme FXIIa and S-2222) were added and the residual enzyme activity was measured from the initial rate of increase in absorbance at 405 nm. Relative residual enzyme activity as a function of the inhibitor concentration was fitted using Logistic Equation (1) to obtain the IC50 (potency), A Y % (efficacy) of enzyme inhibition, and HS (Hill slope). […]

The target of the next test is Human FXIa (Homo sapiens, UniProt P03951). As to the kind of experiment: Direct inhibition of FXIa, chromogenic substrate hydrolysis assay. Format: biochemical. Particulars: Tris-HCl buffer. The protocol: Direct inhibitions of thrombin (FIIa), factor VIIa (FVIIa), factor IXa (FIXa), factor Xa (FXa), FXIa, factor XIIa (FXIIa), trypsin and chymotrypsin were evaluated using the corresponding chromogenic substrate hydrolysis assays as previously reported. Briefly, to each well of a 96-well microplate containing 85-185 μl of […] Tris buffer containing 100 mM NaCl, 2.5 mM CaCl2, 0.1% PEG 8000, and 0.05% tween 80 at 25 (thrombin) or 37° C. (FVIIa, FIXa, FXa, FXIa, FXIIa, chymotrypsin, and trypsin) were added 5 μl of enzyme (thrombin, FVIIa, FIXa, FXa, FXIa, FXIIa, chymotrypsin, and trypsin) and 5 μl of the inhibitor. Following an incubation period of 5 min, the appropriate chromogenic substrates (Spectrozyme TH, Spectrozyme FIXa, Spectrozyme FXa, S-2366, Spectrozyme FXIIa and S-2222) were added and the residual enzyme activity was measured from the initial rate of increase in absorbance at 405 nm. Relative residual enzyme activity as a function of the inhibitor concentration was fitted using Logistic Equation (1) to obtain the IC50 (potency), A Y % (efficacy) of enzyme inhibition, and HS (Hill slope). The concentrations of enzymes and substrates in microplate cells were: 6 nM and 50 μM for thrombin; 1.09 nM and 125 μM for FXa; 5 nM and 125 μM for FXIIa; 89 nM and 850 μM for FIXa; 8 nM and 1000 µM for FVIIa (along with 40 nM recombinant tissue factor); 72.5 ng/ml and 80 μM for bovine trypsin; and 500 ng/ml and 240 μM for bovine chymotrypsin.
Sequence of Human FXIa (P03951 388-625): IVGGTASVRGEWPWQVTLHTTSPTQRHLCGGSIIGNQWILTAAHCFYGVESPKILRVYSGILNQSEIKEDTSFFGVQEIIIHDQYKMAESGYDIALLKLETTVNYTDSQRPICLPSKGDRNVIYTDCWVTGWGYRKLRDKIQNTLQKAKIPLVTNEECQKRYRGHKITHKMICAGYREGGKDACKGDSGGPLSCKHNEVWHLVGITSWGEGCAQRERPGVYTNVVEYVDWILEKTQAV
Sequence of Human FXIa (P03951 19-387 partner): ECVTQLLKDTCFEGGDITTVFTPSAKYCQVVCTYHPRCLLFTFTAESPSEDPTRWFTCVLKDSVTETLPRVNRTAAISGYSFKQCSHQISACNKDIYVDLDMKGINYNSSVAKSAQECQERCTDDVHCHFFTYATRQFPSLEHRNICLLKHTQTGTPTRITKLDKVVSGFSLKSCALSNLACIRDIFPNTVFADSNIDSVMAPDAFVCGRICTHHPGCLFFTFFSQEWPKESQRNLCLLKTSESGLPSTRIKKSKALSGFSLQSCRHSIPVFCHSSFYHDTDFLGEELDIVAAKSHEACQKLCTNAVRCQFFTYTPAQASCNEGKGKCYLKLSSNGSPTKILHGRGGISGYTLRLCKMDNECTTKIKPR

The target in a further test is Thrombin (human FIIa) (Homo sapiens, UniProt P00734). As to the kind of experiment: Direct inhibition of thrombin, chromogenic substrate hydrolysis assay. Format: biochemical. Particulars: Tris-HCl buffer; estimated from the highest concentration used. As to the method:
as §1

For test [2], the target named is T1, CatG. Particulars: reported; read-out: estimated Ki, allosteric inhibitor; cited from earlier work.
The mark [3] stands for this setting: Tris buffer pH 7.4, 37° C., 100 mM NaCl, read-out: IC50.

T2 sequence (P00742 235-488): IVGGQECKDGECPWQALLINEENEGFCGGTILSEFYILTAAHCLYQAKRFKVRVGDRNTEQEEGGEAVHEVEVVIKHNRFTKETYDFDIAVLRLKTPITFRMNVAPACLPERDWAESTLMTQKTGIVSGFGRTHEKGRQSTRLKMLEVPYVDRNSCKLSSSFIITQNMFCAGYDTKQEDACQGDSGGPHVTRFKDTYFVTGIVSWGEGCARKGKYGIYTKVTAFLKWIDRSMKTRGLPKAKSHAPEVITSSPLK
T2 sequence (P00742 41-179 partner): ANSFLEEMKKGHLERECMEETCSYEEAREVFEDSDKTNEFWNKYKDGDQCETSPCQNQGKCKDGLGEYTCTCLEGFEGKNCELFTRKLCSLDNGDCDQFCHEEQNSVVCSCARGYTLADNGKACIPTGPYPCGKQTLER

On to `Cc1ccc(C(=O)Nc2ccc(CP(=O)(O)O)cc2CP(=O)(O)O)cc1NC(=O)Nc1cc(C(=O)Nc2ccc(CP(=O)(O)O)cc2CP(=O)(O)O)ccc1C` [((((3,3′-(carbonylbis(azanediyl))bis(4-methylbenzoyl))bis(azanediyl))bis(4,1-phenylene))bis(methylene))bis(phosphonic acid)], for which, on CatG [1] (Table 6, read-out: CATG IC50), the IC50 was in the range of 10 to 100 µM.

In the case of `O=C(Nc1cc(C(=O)Nc2ccc(S(=O)(=O)O)cc2)cc(C(=O)Nc2ccc(S(=O)(=O)O)cc2S(=O)(=O)O)c1)Nc1cc(C(=O)Nc2ccc(S(=O)(=O)O)cc2)cc(C(=O)Nc2ccc(S(=O)(=O)O)cc2S(=O)(=O)O)c1` [4,4′-((3,3′-(carbonylbis(azanediyl))bis(5-((4-sulfophenyl)carbamoyl)benzoyl))bis(azanediyl))bis(benzene-1,3-disulfonic acid)], the 50% inhibitory concentration (IC50) on CatG [1] (Table 6, read-out: CATG IC50) was in the range of 0.5 to 1 µM.

As for `O=C(Nc1cccc(C(=O)Nc2ccc(CP(=O)(O)O)cc2CP(=O)(O)O)c1)Nc1cccc(C(=O)Nc2ccc(CP(=O)(O)O)cc2CP(=O)(O)O)c1` [((((3,3′-(carbonylbis(azanediyl))bis(4-methylbenzoyl))bis(azanediyl))bis(benzene-4,1,3-triyl))tetrakis(methylene))tetrakis(phosphonic acid)], the IC50 at CatG [1] (Table 6, read-out: CATG IC50) fell in the range of 1 to 10 µM.

For `O=C(Nc1cc(C(=O)Nc2ccccc2S(=O)(=O)O)cc(C(=O)Nc2ccccc2S(=O)(=O)O)c1)Nc1cc(C(=O)Nc2ccccc2S(=O)(=O)O)cc(C(=O)Nc2ccccc2S(=O)(=O)O)c1` [2,2′,2″,2″′-((5,5′-(carbonylbis(azanediyl))bis(isophthaloyl))tetrakis(azanediyl))tetrabenzenesulfonic acid], the IC50 on CatG [1] (Table 6, read-out: CATG IC50) is 1 to 5 µM.

In the case of `Cc1ccc(C(=O)Nc2ccc(CP(=O)(O)O)cc2)cc1NC(=O)c1cccc(NC(=O)Nc2cccc(C(=O)Nc3cc(C(=O)Nc4ccc(CP(=O)(O)O)cc4)ccc3C)c2)c1` [((((3,3′-((3,3′-(carbonylbis(azanediyl))bis(benzoyl))bis(azanediyl))bis(4-methylbenzoyl))bis(azanediyl))bis(4,1-phenylene))bis(methylene))bis(phosphonic acid)], the IC50 on CatG [1] (Table 6, read-out: CATG IC50) lay within 10 to 100 µM.

With `O=C(Nc1cc(C(=O)Nc2cc(S(=O)(=O)O)ccc2S(=O)(=O)O)cc(C(=O)Nc2cc(S(=O)(=O)O)ccc2S(=O)(=O)O)c1)Nc1cc(C(=O)Nc2cc(S(=O)(=O)O)ccc2S(=O)(=O)O)cc(C(=O)Nc2cc(S(=O)(=O)O)ccc2S(=O)(=O)O)c1` [2,2′,2″,2″′-((5,5′-(carbonylbis(azanediyl))bis(isophthaloyl))tetrakis(azanediyl))tetrakis(benzene-1,4-disulfonic acid)], on CatG [1] (Table 6, read-out: CATG IC50), the IC50 is 1 to 5 µM.

For `O=C(Nc1cc(C(=O)Nc2ccc(S(=O)(=O)O)cc2)cc(C(=O)Nc2ccc(S(=O)(=O)O)cc2)c1)Nc1cc(C(=O)Nc2ccc(S(=O)(=O)O)cc2)cc(C(=O)Nc2ccc(S(=O)(=O)O)cc2)c1` [Formula I, 4,4′,4″,4″-((5,5′-(carbonylbis(azanediyl))bis(isophthaloyl))tetrakis(azanediyl))tetrabenzenesulfonic acid], the IC50 was 0.83 µM on CatG [1] (Table 6, read-out: CATG IC50); 0.083 ± 0.14 µM on CatG [1] (setting [3]); greater than 100 µM at FXa; 29.5 ± 4.6 µM against Human FXIa; greater than 100 µM on Thrombin (human FIIa). Moreover, the “HS (Hill slope)” value on CatG [1] (Tris buffer pH 7.4, 37° C.) was 1.7 ± 0.4; at Human FXIa, 1.2 ± 0.2. Besides, the “ΔY (efficacy)” value on CatG [1] (Tris buffer pH 7.4, 37° C.) is recorded as 91.9 ± 6.8%; on Human FXIa, 90.9 ± 5.8%.

Regarding `O=C(Nc1cccc(C(=O)Nc2cccc(C(=O)Nc3cccc(P(=O)(O)O)c3)c2)c1)Nc1cccc(C(=O)Nc2cccc(C(=O)Nc3cccc(P(=O)(O)O)c3)c2)c1` [(((3,3′-((3,3′-(carbonylbis(azanediyl))bis(benzoyl))bis(azanediyl))bis(benzoyl))bis(azanediyl))bis(3,1-phenylene))bis(phosphonic acid)], the concentration for half-maximal inhibition (IC50) at CatG [1] (Table 6, read-out: CATG IC50) was in the range of 1 to 10 µM.

Take heparin: the Ki on CatG [2] was less than 0.025 nM.

For `Cc1ccc(C(=O)Nc2ccc(CP(=O)(O)O)cc2CP(=O)(O)O)cc1NC(=O)c1cccc(NC(=O)Nc2cccc(C(=O)Nc3cc(C(=O)Nc4ccc(CP(=O)(O)O)cc4CP(=O)(O)O)ccc3C)c2)c1` [Formula III, ((((3,3′-((3,3′-(carbonylbis(azanediyl))bis(benzoyl))bis(azanediyl))bis(4-methylbenzoyl))bis(azanediyl))bis(benzene-4,1,3-triyl))tetrakis(methylene))tetrakis(phosphonic acid)], the IC50 on CatG [1] (Table 6, read-out: CATG IC50) was 3.1 µM; on CatG [1] (setting [3]), 3.1 µM; at FXa, greater than 100 µM; at Thrombin (human FIIa), greater than 500 µM. For the same compound, the “HS (Hill slope)” value came out at 1.1 ± 0.1 on CatG [1] (Tris buffer pH 7.4, 37° C.) and 1.9 ± 0.5 at Human FXIa. The “ΔY (efficacy)” value is recorded as 87.5 ± 1.8% on CatG [1] (Tris buffer pH 7.4, 37° C.) and 68.0 ± 3.7% at Human FXIa.
